# In publication PMC5608031 (Hormone molecular biology and clinical investigation, 2017):
# Molecular target: human cytosolic sulfotransferase 1C4 (hSULT1C4) (Homo sapiens, UniProt O75897)
# Assay: biochemical
# Format: binding
# human cytosolic sulfotransferase 1C4 (hSULT1C4), sequence (O75897 whole entry): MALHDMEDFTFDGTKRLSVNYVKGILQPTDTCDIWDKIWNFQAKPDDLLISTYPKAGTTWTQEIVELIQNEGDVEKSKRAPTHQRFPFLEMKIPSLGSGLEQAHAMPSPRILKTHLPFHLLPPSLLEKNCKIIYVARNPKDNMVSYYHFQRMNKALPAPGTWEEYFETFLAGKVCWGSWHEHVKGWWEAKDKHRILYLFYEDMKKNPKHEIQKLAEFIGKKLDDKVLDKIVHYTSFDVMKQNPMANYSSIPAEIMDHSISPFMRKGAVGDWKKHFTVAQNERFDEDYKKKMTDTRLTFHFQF
compound,measurement,value
Nc1ncnc2c1ncn2[C@@H]1O[C@H](COP(=O)(O)O)[C@@H](OP(=O)(O)O)[C@H]1O [PAP],Kd,2800 ± 200 nM
